Laboratory results published in PubChem BioAssay (NCI).
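96-well plates; 48 h exposure; 5 concentrations. Endpoints by linear interpolation between flanking doses. Not reached: highest tested concentration assigned. Abbreviation: GI50, concentration required for 50% inhibition of growth. TGI: total growth inhibition.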

Key:
Experiment in all cases: growth of human tumour cells (NCI), 48 h
ACHN renal = system: ACHN renal
HS 578T breast = system: HS 578T breast
SNB-19 CNS = system: SNB-19 CNS
786-0 renal = system: 786-0 renal
PC-3 prostate = system: PC-3 prostate
HOP-62 NSCLC = system: HOP-62 NSCLC
SK-MEL-2 melanoma = system: SK-MEL-2 melanoma
COLO 205 colon = system: COLO 205 colon
SK-MEL-5 melanoma = system: SK-MEL-5 melanoma
NCI-H522 lung = system: NCI-H522 lung

Compound: CCCCCCCCC/C=C1/CC(CO)(COC(=O)C2CCCCC2)OC1=O (stereo not given)
- TGI (ACHN renal): > 100 µM
- TGI (HS 578T breast): > 100 µM
- TGI (SNB-19 CNS): > 100 µM
- TGI (786-0 renal): > 100 µM
- TGI (PC-3 prostate): > 100 µM
- TGI (HOP-62 NSCLC): > 100 µM
- TGI (SK-MEL-2 melanoma): > 100 µM
- TGI (COLO 205 colon): > 100 µM
- TGI (SK-MEL-5 melanoma): > 100 µM
- TGI (NCI-H522 lung): > 100 µM

Compound: CCN1CCC(O)(/C=C/c2ccc(Cl)c(Cl)c2)C(C(=O)/C=C/c2ccc(Cl)c(Cl)c2)C1 (stereo not given)
- TGI (ACHN renal): 2.43 µM
- TGI (HS 578T breast): 2.42 µM
- TGI (SNB-19 CNS): 3.71 µM
- TGI (786-0 renal): 2.7 µM
- TGI (PC-3 prostate): 1.05 µM
- TGI (HOP-62 NSCLC): 2.48 µM
- TGI (SK-MEL-2 melanoma): 3.66 µM
- TGI (COLO 205 colon): 1.74 µM
- TGI (SK-MEL-5 melanoma): 2.18 µM
- TGI (NCI-H522 lung): 2.33 µM

Compound: COc1ccccc1-c1nc[nH]c1-c1ccccc1OC
- TGI (ACHN renal): > 100 µM
- TGI (SNB-19 CNS): > 100 µM
- TGI (786-0 renal): > 100 µM
- TGI (PC-3 prostate): > 100 µM
- TGI (HOP-62 NSCLC): > 100 µM
- TGI (SK-MEL-2 melanoma): > 100 µM
- TGI (NCI-H522 lung): 42.1 µM

Compound: CN(C)c1ccc(/C=C(\C#N)C(=O)c2ccccc2)cc1Br
- TGI (ACHN renal): > 100 µM
- TGI (SNB-19 CNS): > 100 µM
- TGI (786-0 renal): > 100 µM
- TGI (HOP-62 NSCLC): 39.6 µM
- TGI (SK-MEL-2 melanoma): > 100 µM
- TGI (COLO 205 colon): > 100 µM
- TGI (SK-MEL-5 melanoma): > 100 µM
- TGI (NCI-H522 lung): > 100 µM

Compound: CN(C)CC(O)CNC(=O)Nc1ccccc1 (stereo not given)
- TGI (ACHN renal): > 100 µM
- TGI (HS 578T breast): > 100 µM
- TGI (SNB-19 CNS): > 100 µM
- TGI (786-0 renal): > 100 µM
- TGI (PC-3 prostate): > 100 µM
- TGI (HOP-62 NSCLC): > 100 µM
- TGI (SK-MEL-2 melanoma): > 100 µM
- TGI (COLO 205 colon): > 100 µM
- TGI (SK-MEL-5 melanoma): > 100 µM

Compound: CN(CCCNC(=O)c1[nH]nc2c1ccc1ccccc12)CCCNC(=O)c1[nH]nc2c1ccc1ccccc12
- TGI (ACHN renal): 31.4 µM
- TGI (HS 578T breast): 33.5 µM
- TGI (SNB-19 CNS): 37.6 µM
- TGI (786-0 renal): 22.9 µM
- TGI (PC-3 prostate): 27.9 µM
- TGI (HOP-62 NSCLC): 34.6 µM
- TGI (SK-MEL-2 melanoma): 23.6 µM
- TGI (COLO 205 colon): 10.9 µM
- TGI (SK-MEL-5 melanoma): 17 µM
- TGI (NCI-H522 lung): 30.8 µM

Compound: O=S1(=O)OCCOS(=O)(=O)C1C1c2ccccc2-c2ccccc21
- TGI (ACHN renal): > 100 µM
- TGI (HS 578T breast): > 100 µM
- TGI (SNB-19 CNS): > 100 µM
- TGI (786-0 renal): > 100 µM
- TGI (PC-3 prostate): > 100 µM
- TGI (HOP-62 NSCLC): > 100 µM
- TGI (SK-MEL-2 melanoma): > 100 µM
- TGI (COLO 205 colon): > 100 µM
- TGI (SK-MEL-5 melanoma): > 100 µM
- TGI (NCI-H522 lung): 64.5 µM

Compound: c1ccc(C(OCCN2CC3CCC(C2)N3)c2ccccc2)cc1
- TGI (ACHN renal): > 100 µM
- TGI (HS 578T breast): > 100 µM
- TGI (SNB-19 CNS): > 100 µM
- TGI (786-0 renal): > 100 µM
- TGI (PC-3 prostate): > 100 µM
- TGI (HOP-62 NSCLC): > 100 µM
- TGI (SK-MEL-2 melanoma): > 100 µM
- TGI (COLO 205 colon): 42.2 µM
- TGI (SK-MEL-5 melanoma): 36.1 µM
- TGI (NCI-H522 lung): 93.1 µM

Compound: CC(NC(=O)C(NC(=O)C(NC(=O)C(F)(F)F)C(C)C)C(C)C)C(=O)Oc1c(Cl)c(Cl)c(Cl)c(Cl)c1Cl (stereo not given)
- TGI (ACHN renal): > 100 µM
- TGI (HS 578T breast): > 100 µM
- TGI (SNB-19 CNS): > 100 µM
- TGI (PC-3 prostate): > 100 µM
- TGI (HOP-62 NSCLC): > 100 µM
- TGI (SK-MEL-2 melanoma): > 100 µM
- TGI (COLO 205 colon): > 100 µM
- TGI (SK-MEL-5 melanoma): > 100 µM
- TGI (NCI-H522 lung): > 100 µM

Compound: COC(=O)C1=C(C(=O)OC)SC2(S1)C(C(=O)OC)=C(C(=O)OC)Sc1c2ssc1=O
- TGI (ACHN renal): 2.22 µM
- TGI (HS 578T breast): 13.4 µM
- TGI (SNB-19 CNS): 34.2 µM
- TGI (786-0 renal): 1.21 µM
- TGI (PC-3 prostate): 3.75 µM
- TGI (HOP-62 NSCLC): 4.53 µM
- TGI (SK-MEL-2 melanoma): 4.1 µM
- TGI (COLO 205 colon): 2.08 µM
- TGI (SK-MEL-5 melanoma): 2.59 µM
- TGI (NCI-H522 lung): 0.581 µM

Compound: CC(C)c1cccc(C(C)C)c1NC(=O)/C(Cc1nc2ccc(Cl)cc2[nH]c1=O)=N\NC(=O)C[N+](C)(C)C
- TGI (ACHN renal): > 100 µM
- TGI (SNB-19 CNS): > 100 µM
- TGI (786-0 renal): > 100 µM
- TGI (HOP-62 NSCLC): > 100 µM
- TGI (SK-MEL-2 melanoma): > 100 µM
- TGI (COLO 205 colon): > 100 µM
- TGI (SK-MEL-5 melanoma): > 100 µM
- TGI (NCI-H522 lung): > 100 µM

Compound: Clc1cccc(C=NC23CC4CC(CC(C4)C2)C3)c1Cl
- TGI (ACHN renal): > 10 µM
- TGI (HS 578T breast): > 10 µM
- TGI (SNB-19 CNS): > 10 µM
- TGI (786-0 renal): > 10 µM
- TGI (PC-3 prostate): > 10 µM
- TGI (HOP-62 NSCLC): > 10 µM
- TGI (SK-MEL-2 melanoma): > 10 µM
- TGI (COLO 205 colon): > 10 µM
- TGI (SK-MEL-5 melanoma): > 10 µM
- TGI (NCI-H522 lung): > 10 µM

Compound: CC(=O)Nc1ccc(S(=O)(=O)Nc2cnc3ccccc3n2)cc1
- TGI (ACHN renal): > 100 µM
- TGI (SNB-19 CNS): > 100 µM
- TGI (786-0 renal): > 100 µM
- TGI (HOP-62 NSCLC): > 100 µM
- TGI (SK-MEL-2 melanoma): > 100 µM
- TGI (COLO 205 colon): > 100 µM
- TGI (SK-MEL-5 melanoma): > 100 µM
- TGI (NCI-H522 lung): > 100 µM

Compound: O=C1C2Cc3ccccc3CN2C(=O)N1CN1CCCCC1 (stereo not given)
- TGI (ACHN renal): > 100 µM
- TGI (SNB-19 CNS): > 100 µM
- TGI (786-0 renal): > 100 µM
- TGI (HOP-62 NSCLC): > 100 µM
- TGI (SK-MEL-2 melanoma): > 100 µM
- TGI (COLO 205 colon): > 100 µM
- TGI (SK-MEL-5 melanoma): > 100 µM
- TGI (NCI-H522 lung): > 100 µM

Compound: CCOC1=C2N=C(C(CC)c3ccc(F)cc3)N=C2C(=O)c2ccccc21 (stereo not given)
- TGI (ACHN renal): > 81.6 µM
- TGI (SNB-19 CNS): > 100 µM
- TGI (786-0 renal): > 100 µM
- TGI (HOP-62 NSCLC): > 100 µM
- TGI (SK-MEL-2 melanoma): 39.5 µM
- TGI (COLO 205 colon): 47 µM
- TGI (SK-MEL-5 melanoma): 26.9 µM
- TGI (NCI-H522 lung): 76.7 µM

Compound: COc1cc2ccnc3c2c(c1OC)N(C)C=C3
- TGI (ACHN renal): 46.4 µM
- TGI (HS 578T breast): > 100 µM
- TGI (SNB-19 CNS): 75.9 µM
- TGI (786-0 renal): 53.6 µM
- TGI (PC-3 prostate): > 100 µM
- TGI (HOP-62 NSCLC): > 100 µM
- TGI (SK-MEL-2 melanoma): 57.6 µM
- TGI (COLO 205 colon): 96.3 µM

Compound: Nc1nc(Cl)cc(OCC2(CO)CCCCC2)n1
- TGI (ACHN renal): > 100 µM
- TGI (HS 578T breast): > 100 µM
- TGI (SNB-19 CNS): > 100 µM
- TGI (786-0 renal): > 100 µM
- TGI (PC-3 prostate): > 100 µM
- TGI (HOP-62 NSCLC): > 100 µM
- TGI (SK-MEL-5 melanoma): > 100 µM
- TGI (NCI-H522 lung): > 100 µM

Compound: O=C(/C=C/c1cc2ccccc2[nH]c1=O)c1ccc(O)cc1
- GI50 (ACHN renal): 2.67 µM
- TGI (ACHN renal): 8.86 µM
- GI50 (HS 578T breast): 6.14 µM
- TGI (HS 578T breast): > 100 µM
- GI50 (SNB-19 CNS): 4.59 µM
- TGI (SNB-19 CNS): 18 µM
- GI50 (PC-3 prostate): 5.39 µM
- TGI (PC-3 prostate): 55.3 µM
- GI50 (HOP-62 NSCLC): 2.62 µM
- TGI (HOP-62 NSCLC): 8.18 µM
- GI50 (SK-MEL-2 melanoma): 4.13 µM
- TGI (SK-MEL-2 melanoma): 13.6 µM
- GI50 (COLO 205 colon): 4.51 µM
- TGI (COLO 205 colon): 19.7 µM
- GI50 (SK-MEL-5 melanoma): 3.98 µM
- TGI (SK-MEL-5 melanoma): 13.3 µM
- GI50 (NCI-H522 lung): 1.7 µM
- TGI (NCI-H522 lung): 3.29 µM

Compound: COC(=O)C12CCC(CC1=O)C2(C)C (stereo not given)
- TGI (ACHN renal): > 100 µM
- TGI (SNB-19 CNS): > 100 µM
- TGI (786-0 renal): > 100 µM
- TGI (HOP-62 NSCLC): > 100 µM
- TGI (COLO 205 colon): > 100 µM
- TGI (SK-MEL-5 melanoma): > 100 µM

Compound: CCOC(=O)C1=C(C)NC(c2ccccc2)=C(C(=O)OCc2ccccc2)C1C#Cc1ccccc1 (stereo not given)
- TGI (HS 578T breast): > 100 µM
- TGI (SNB-19 CNS): > 100 µM
- TGI (786-0 renal): > 100 µM
- TGI (PC-3 prostate): > 100 µM
- TGI (HOP-62 NSCLC): > 100 µM
- TGI (SK-MEL-2 melanoma): > 100 µM
- TGI (COLO 205 colon): > 100 µM
- TGI (SK-MEL-5 melanoma): > 100 µM

Compound: O=C1/C(=C/Cc2ccco2)N=C(c2ccccc2)N1c1nc2ccc(Sc3ccccc3)cc2[nH]1
- TGI (ACHN renal): 44.9 µM
- TGI (HS 578T breast): 50.7 µM
- TGI (SNB-19 CNS): 86.7 µM
- TGI (786-0 renal): 38.5 µM
- TGI (PC-3 prostate): 53.6 µM
- TGI (HOP-62 NSCLC): > 100 µM
- TGI (SK-MEL-2 melanoma): 34.8 µM
- TGI (COLO 205 colon): 36 µM
- TGI (SK-MEL-5 melanoma): 31.8 µM

Compound: CC(C)C(N=C1CC2CCC1(C(=O)Nc1ccccc1O)C2(C)C)c1ccccc1 (stereo not given)
- TGI (ACHN renal): > 10 µM
- TGI (SNB-19 CNS): > 10 µM
- TGI (786-0 renal): > 10 µM
- TGI (HOP-62 NSCLC): > 10 µM
- TGI (SK-MEL-2 melanoma): > 10 µM
- TGI (COLO 205 colon): > 10 µM
- TGI (SK-MEL-5 melanoma): > 10 µM
- TGI (NCI-H522 lung): > 10 µM
